US20170037480A1, “HSF1 IN TUMOR STROMA” (Whitehead Institute for Biomedical Research, priority 2014, published 2017)
“Also recorded” adds a separate entry of the source.

Tests used:
[1] = test system: D2A1 cells co-cultured with Hsf1 null MEFs; test: Co-culture of dsRed D2A1 cancer cells on Hsf1 null MEF feeder layer, cancer cells counted by flow cytometry; type: cell-based, mouse; settings: for cancer cell growth (percentage of cancer cells) in co-culture with Hsf1 null MEFs on addition of recombinant proteins: 10 ng/ml TGFβ1, 100 ng/ml SDF1, added once, 96 h
Description: (§1) (A) The relative expression of Sdf1, Tgfβ1 and Tgfβ2 in WT or Hsf1 null immortalized MEFs was measured by quantitative PCR. mRNA expression levels were normalized to the house keeping gene Gapdh. The mean of 3 independent experiments is shown. Error bars, SEM. *p<0.05, **p<0.01. (B-C) WT or Hsf1 null immortalized MEFs were plated and treated with mitomycin C as in FIG. 3A. D2A1 cells marked with dsRed were then seeded on top of the MEFs in the presence or absence of 10 ng/ml TGFβ1 and 100 ng/ml SDF1. After 96 h, cells were either visualized by fluorescent microscopy (B) or trypsinized and quantitated by flow cytometry (C). The percentage of cancer cells in co-culture is presented. The experiment was repeated 3 times, in triplicate. Representative results of one experiment are shown as the mean+/−SEM. *p<0.05. (D) Immortalized WT or Hsf1 null mitomycin-treated MEFs were pretreated, or not, with LY2109761 for 30 minutes before D2A1 cells marked with dsRed were seeded on top. Cultures were continued for 72 h, with daily supplementation of LY2109761 (or not, as control), and then analyzed as in (C). The experiment was repeated 3 times, in triplicates. Results are expressed as the mean relative number of cancer cells, normalized to the non-drug treated co-cultures with WT MEFs. […] (E) Immortalized WT MEFs stably expressing shRNA hairpins targeting Smad2 (shSmad2) or GFP (shGFP) were co-cultured with D2A1 cells, treated and analyzed as in (C). […] IPs were analyzed by qPCR with primers targeting potential heat shock elements in mouse Sdf1 and Tgfβ2. […]
Figs. S4A-S4F show additional results. […] The relative expression of Sdf1, Tgfβ1 and Tgfβ2 in three separate sets of WT or Hsf1 null MEFs (each derived from a different pregnancy) was measured by quantitative PCR. mRNA expression levels were normalized to the house keeping gene Gapdh. […] After 96 h, cells were trypsinized and quantitated by flow cytometry. […] Relative cell number was measured by luminescence using Cell-Titer Glo reagent (Promega). […] After growth for 96 h, cells were trypsinized and quantitated by flow cytometry. […]

[2] = test system: D2A1 cells co-cultured with WT MEFs; test: Co-culture of dsRed D2A1 cancer cells on WT MEF feeder layer, cancer cells counted by flow cytometry; type: cell-based, mouse; settings: LY2109761, MEFs pretreated 30 minutes, 72 h, daily supplementation; p=0.008
Description: as §1, with “(D) Immortalized WT or Hsf1 null mitomycin-treated MEFs were pretreated, or not, with LY2109761 for 30 minutes before D2A1 cells marked with dsRed were seeded on top.” left out, “The experiment was repeated 3 times, in triplicates.” left out

[3] = test system: D2A1 cancer cells; test: Growth of D2A1 cancer cells grown alone (no MEFs), Cell-Titer Glo luminescence; type: cell-based, mouse; settings: LY2109761 1 μM, 72 h, daily re-addition of inhibitor
Description: Figs. S4A-S4F show additional results. (A) Tgfβ and Sdf1 mRNA levels are regulated by HSF1 in primary MEFs. The relative expression of Sdf1, Tgfβ1 and Tgfβ2 in three separate sets of WT or Hsf1 null MEFs (each derived from a different pregnancy) was measured by quantitative PCR. mRNA expression levels were normalized to the house keeping gene Gapdh. The experiment was repeated 3 times (each time with a different set of primary MEFs), in triplicate. Representative results are shown as the mean+/−SEM. *p<0.05, **p<0.01, ***p<0.001. […] WT or Hsf1 null immortalized MEFs were plated and treated with mitomycin C. D2A1 cells marked with dsRed were then seeded on top of the MEFs in the presence or absence of 10 ng/ml TGFβ1, 100 ng/ml SDF1 or a combination of both. After 96 h, cells were trypsinized and quantitated by flow cytometry. The percentage of cancer cells in the co-culture is presented. The experiment was repeated 3 times, in triplicate. […] Relative cell number was measured by luminescence using Cell-Titer Glo reagent (Promega). […] After growth for 96 h, cells were trypsinized and quantitated by flow cytometry. […] Relative levels of SMAD2 in WT immortalized MEFs (left two panels) or D2A1 cells (right two panels) were measured by immunoblotting lysates prepared from cells stably expressing shRNA hairpins targeting Smad2 (shSmad2) or GFP (shGFP). […]

[4] = test system: HSF1; settings: recent chemical screening effort; cited from earlier work
[5] = test system: HSF1; test: Effect of RHT on expression of HSF1 stromal signature genes in Hsf1+/+ versus Hsf1-/- MEFs; type: cell-based, mouse; settings: reduced in treated Hsf1+/+ MEFs but not in Hsf1-/- MEFs
Source text: A combination of experimental and bioinformatic approaches was used to define a set of HSF1-regulated genes of particular use for assessing the level of HSF1 activity in tumor-associated stromal cells for purposes of cancer classification, diagnosis, prognosis, treatment-specific prediction, and treatment selection. The pipeline started with the Group 1 and Group 4 gene lists described above. As described above, these 871 genes have increased expression in Hsf1+/+ versus Hsf1−/−MEFs. These 871 genes map to 562 genes in the Finak, G. et al. dataset discussed above (GEO (GSE9014)). […] Its structure is depicted below.
The 562 genes that mapped to genes in the Finak dataset were tested to determine the effect of RHT on their expression in Hsf1+/+MEFs versus […] MEFs. […] A filter was applied to these genes to identify those that were differentially expressed in tumors in the Finak dataset with poor versus good outcomes.

With “TGFβ1: purified recombinant protein (R&D systems, 240-B-002)” the “cancer cell growth (percentage of cancer cells) in co-culture with Hsf1 null MEFs on addition of recombinant proteins” value [1] was “Partial effects, that did not reach statistical significance”.

With “SDF1: purified recombinant protein (R&D systems, 460-SD-010)” the “cancer cell growth (percentage of cancer cells) in co-culture with Hsf1 null MEFs on addition of recombinant proteins” value [1] was “Partial effects, that did not reach statistical significance”.

In the case of c1ccc(-c2nn3c(c2-c2ccnc4cc(OCCN5CCOCC5)ccc24)CCC3)nc1 [LY2109761], the “growth of D2A1 cancer cells in co-culture with WT MEFs (relative number of cancer cells)” value [2] was “significantly reduce their growth”, the “growth or survival of D2A1 cancer cells grown alone (relative cell number)” value [3] was “did not affect; also recorded: does not directly inhibit” and the “growth of D2A1 cancer cells in co-culture with Hsf1 null MEFs (relative number of cancer cells)” value ([1]; LY2109761, MEFs pretreated 30 minutes, 72 h, daily supplementation, p=0.1) was “A smaller effect, that did not reach statistical significance”.

In the case of COc1ccc([C@@]23Oc4cc(OC)cc(OC)c4[C@]2(O)[C@H](O)[C@H](C(=O)N(C)OC)[C@H]3c2ccccc2)cc1 [Rohinitib], the “inhibition of HSF1 activity” value [4] is given as “potent inhibitor” and the “number of genes (of 562 tested) whose expression was suppressed in an HSF1-dependent fashion” value [5] is given as 95.
